Reference: patent US11786476B2, “Oral dosage form” (Universiteit Gent, priority 2016, dated 2023)
Structures can show the parent of a compound that is named as a salt.

How the values were obtained:
[1] = literature values; cited from earlier work
[2] = Powder characteristics of raw materials (particle size and geometry); type: physicochemical; details: raw material powder; for D90: 90% of particles smaller than this diameter

Q: With COc1cccc(C2(O)CCCCC2CN(C)C)c1 (stereo not drawn) [tramadol] as the molecule, how does the aqueous solubility [1] read?
A: 30 to 100 mg/mL

Q: What does the source list for CN(C)C(=N)N=C(N)N [Metformin · HCl, metformin hydrochloride]?
A: D10 [2]: 8.4 μm; D50 [2]: 51.6 μm; Sphericity [2]: 0.87; D90 [2]: 150.2 μm

Q: Which D10 [2] does the source give for CC(=O)Nc1ccc(O)cc1 [Acetaminophen, acetaminophen] here?
A: 1.7 μm

Q: What about the D50 [2] of the same molecule?
A: 6.4 μm

Q: And the Sphericity [2]?
A: 0.84

Q: What about the D90 [2] of the same molecule?
A: 20.1 μm
